# From patent publication US20110196000A1, “Use of succinate dehydrogenase (SDH) inhibitors in the treatment of plant species from the family of the true grasses” (Bayer CropScience AG, priority 2010, published 2011)
# What was measured:
# Format in all cases: in vivo
# wheat variety Ritmo [1] = assay: Plot trial in Germany: green leaf area by visual scoring; conditions: sprays at BBCH 39 and 59
# Description: In Germany a plot trial was set up with the wheat variety Ritmo in order to investigate the effect of bixafen on the physiology, morphology and abiotic stress tolerance of wheat plants under realistic agricultural conditions. The products under test were applied to the plants, in the form of sequential spray sequences (BBCH 39 and 59). The spray volume was 400 l of water per hectare. In each trial component, 5 repetitions were carried out. [table] The duration of green coloration of the leaf area was captured by regular visual scoring of the fraction of green leaf area.
# wheat variety Ritmo [2] = assay: Plot trial: chlorophyll content of leaves (pigment extraction method of Ziegler and Ehle)
# wheat variety Ritmo [3] = assay: Plot trial: yield components; conditions: sprays at BBCH 39 and 59
# [4] = test system: infection-free wheat plants of the cultivar Passat; assay: Glasshouse trial: green leaf area by visual scoring; conditions: glasshouse
# Description: (§1) In a glasshouse trial under controlled conditions, the effect of bixafen was investigated on the physiology, morphology and abiotic stress tolerance of infection-free wheat plants of the cultivar […] plants were grown in 10-litre containers over a period of 4 months. The substrate used was standard earth type ED 73 (Fröndenberg, Germany)+C-Horizont+Sand (4:2:1). The supply of nutrient to the plants took place by feeding with a 0.2% strength Flory 2 liquid fertilizer solution (from Euflor, Munich) once every two weeks. The plants were supplied with water as required. In each component of the trial, 10 repetitions were carried out. To prevent infestation with powdery mildew, Proquinazid (Talius® was applied once. The incidence of aphids and spider mites was avoided by treatments with Karate®, Bulldock® and Sumicidin®. The products under test were applied to the plants, in the form of sequential spray sequences (BBCH 39 and 59). The spray volume was 300 l of water per hectare. [table] The duration of the green coloration of the leaf area was captured on the basis of regular visual scoring of the fraction of the green leaf area.
# [5] = test system: infection-free wheat plants of the cultivar Passat; assay: Glasshouse trial: yield components; conditions: glasshouse, sprays at BBCH 39 and 59
# [6] = test system: infection-free wheat plants of the cultivar Passat; assay: Glasshouse trial: size of the flag leaf; conditions: at BBCH 83-85
# Description: as §1, with “Morphological parameters measured, additionally, were the length and width, i.e. the size” for “The duration”, “flag leaf. This was greatest with” for “green coloration of”, “succinate dehydrogenase (SDH) inhibitor bixafen, in comparison to” for “leaf area was captured on”, “other comparison fungicides.” for “basis of regular visual scoring of the fraction of the green leaf area.”
# [7] = test system: infection-free wheat plants of the cultivar Passat; assay: Glasshouse trial: time of heading (ear emergence); set-up: time of heading of wheat (ears emerged): unit not given here
# Description: (§2) In a glasshouse trial under controlled conditions, the effect of bixafen was investigated on the physiology, morphology and abiotic stress tolerance of infection-free wheat plants of the cultivar […] plants were grown in 10-litre containers over a period of 4 months. The substrate used was standard earth type ED 73 (Fröndenberg, Germany)+C-Horizont+Sand (4:2:1). The supply of nutrient to the plants took place by feeding with a 0.2% strength Flory 2 liquid fertilizer solution (from Euflor, Munich) once every two weeks. The plants were supplied with water as required. In each component of the trial, 10 repetitions were carried out.
# [8] = test system: infection-free wheat plants of the cultivar Passat; assay: Glasshouse trial: temperature of ears and leaves as measure of transpiration activity
# Description: as §2
# [9] = test system: infection-free wheat plants of the cultivar Passat; assay: Glasshouse trial: gas exchange activity of wheat ears; conditions: development stage BBCH 75
# Description: as §2
# [10] = 7 days after second fungicide application
# [11] = 14 days after second fungicide application
# [12] = 21 days after second fungicide application
# [13] = 28 days after second fungicide application
# [14] = 35 days after second fungicide application
# [15] = 42 days after second fungicide application
# [16] = 68 days after second fungicide application (so in the source)
# [17] = 75 days after second fungicide application (so in the source)
# [18] = 82 days after second fungicide application (so in the source)
# [19] = 89 days after second fungicide application (so in the source)
# [20] = 96 days after second fungicide application (so in the source)
# [21] = 103 days after second fungicide application (so in the source)
# [22] = 110 days after second fungicide application (so in the source)
# [23] = 117 days after second fungicide application (so in the source)
compound,measurement,setting,value
CO/N=C(/C1=NOCCO1)c1ccccc1Oc1ncnc(Oc2ccccc2Cl)c1F [Fluoxastrobin],green leaf area of the flag leaf,wheat variety Ritmo [1]; [10],98.7 % leaf area
same,green leaf area of the second-from-top leaf (F-1),wheat variety Ritmo [1]; [10],98.8 % leaf area
same,green leaf area of the third-from-top leaf (F-2),wheat variety Ritmo [1]; [10],96.3 % leaf area
same,green leaf area of the flag leaf,wheat variety Ritmo [1]; [11],98.7 % leaf area
same,green leaf area of the second-from-top leaf (F-1),wheat variety Ritmo [1]; [11],98.0 % leaf area
same,green leaf area of the third-from-top leaf (F-2),wheat variety Ritmo [1]; [11],95.5 % leaf area
same,green leaf area of the flag leaf,wheat variety Ritmo [1]; [12],98.3 % leaf area
same,green leaf area of the second-from-top leaf (F-1),wheat variety Ritmo [1]; [12],96.1 % leaf area
same,green leaf area of the third-from-top leaf (F-2),wheat variety Ritmo [1]; [12],92.1 % leaf area
same,green leaf area of the flag leaf,wheat variety Ritmo [1]; [13],95.8 % leaf area
same,green leaf area of the second-from-top leaf (F-1),wheat variety Ritmo [1]; [13],93.5 % leaf area
same,green leaf area of the third-from-top leaf (F-2),wheat variety Ritmo [1]; [13],88.5 % leaf area
same,green leaf area of the flag leaf,wheat variety Ritmo [1]; [14],63.0 % leaf area
same,green leaf area of the second-from-top leaf (F-1),wheat variety Ritmo [1]; [14],47.0 % leaf area
same,green leaf area of the third-from-top leaf (F-2),wheat variety Ritmo [1]; [14],31.5 % leaf area
same,green leaf area of the flag leaf,wheat variety Ritmo [1]; [15],23.7 % leaf area
same,green leaf area of the second-from-top leaf (F-1),wheat variety Ritmo [1]; [15],9.8 % leaf area
same,green leaf area of the third-from-top leaf (F-2),wheat variety Ritmo [1]; [15],1.9 % leaf area
same,green leaf area of the second-from-top leaf (F-1),wheat variety Ritmo [1]; 49 days after second fungicide application,0 % leaf area
same,Chlorophyll content,"wheat variety Ritmo [2]; BBCH 75 (mature milk), leaf F",1924 µg/g
same,Chlorophyll content,"wheat variety Ritmo [2]; BBCH 75 (mature milk), leaf F-1",1671 µg/g
same,Chlorophyll content,"wheat variety Ritmo [2]; BBCH 75 (mature milk), leaf F-2",1126 µg/g
same,Chlorophyll content,"wheat variety Ritmo [2]; BBCH 85 (mature dough), leaf F",630 µg/g
same,Chlorophyll content,"wheat variety Ritmo [2]; BBCH 85 (mature dough), leaf F-1",534 µg/g
same,Chlorophyll content,"wheat variety Ritmo [2]; BBCH 85 (mature dough), leaf F-2",415 µg/g
same,Ears/m^2,wheat variety Ritmo [3],409
same,Harvest Index,wheat variety Ritmo [3],58.1
same,Straw,wheat variety Ritmo [3],581 g m^−2
same,TKM (thousand-kernel mass),wheat variety Ritmo [3],45.8 g
same,Yield,wheat variety Ritmo [3],8.2 t ha^−1
same,green leaf area of the flag leaf (F),[4]; [16],100 % leaf area
same,green leaf area of the second-from-top leaf (F-1),[4]; [16],100 % leaf area
same,green leaf area of the third-from-top leaf (F-2),[4]; [16],100 % leaf area
same,green leaf area of the flag leaf (F),[4]; [17],100 % leaf area
same,green leaf area of the second-from-top leaf (F-1),[4]; [17],100 % leaf area
same,green leaf area of the third-from-top leaf (F-2),[4]; [17],95 % leaf area
same,green leaf area of the flag leaf (F),[4]; [18],100 % leaf area
same,green leaf area of the second-from-top leaf (F-1),[4]; [18],95 % leaf area
same,green leaf area of the third-from-top leaf (F-2),[4]; [18],82 % leaf area
same,green leaf area of the flag leaf (F),[4]; [19],95 % leaf area
same,green leaf area of the second-from-top leaf (F-1),[4]; [19],84 % leaf area
same,green leaf area of the third-from-top leaf (F-2),[4]; [19],54 % leaf area
same,green leaf area of the flag leaf (F),[4]; [20],85 % leaf area
same,green leaf area of the second-from-top leaf (F-1),[4]; [20],56 % leaf area
same,green leaf area of the third-from-top leaf (F-2),[4]; [20],29 % leaf area
same,green leaf area of the flag leaf (F),[4]; [21],60 % leaf area
same,green leaf area of the second-from-top leaf (F-1),[4]; [21],30 % leaf area
same,green leaf area of the third-from-top leaf (F-2),[4]; [21],18 % leaf area
same,green leaf area of the flag leaf (F),[4]; [22],37 % leaf area
same,green leaf area of the second-from-top leaf (F-1),[4]; [22],18 % leaf area
same,green leaf area of the third-from-top leaf (F-2),[4]; [22],7 % leaf area
same,green leaf area of the flag leaf (F),[4]; [23],12 % leaf area
same,green leaf area of the second-from-top leaf (F-1),[4]; [23],6 % leaf area
same,green leaf area of the third-from-top leaf (F-2),[4]; [23],0 % leaf area
same,Ears/pot,[5],41.0
same,Harvest Index,[5],29.0%
same,Kernels/ear,[5],21.9
same,Straw,[5],74.5 g/pot
same,TKM (thousand-kernel mass),[5],34.3 g
same,Yield,[5],30.5 g/pot
same,Length of the flag leaf,[6],25.6 cm
same,Width of the flag leaf,[6],1.4 cm
same,Area of the flag leaf,[6]; calculated using the formula A = 0.67 × length × width,24.01 cm^2
same,Area [rel.] of the flag leaf,[6]; untreated = 100,110 rel.
same,time of heading of wheat (ears emerged),[7]; 45 days after sowing,11.4
same,time of heading of wheat (ears emerged),[7]; 50 days after sowing,33.1
same,time of heading of wheat (ears emerged),[7]; 55 days after sowing,43.8
same,time of heading of wheat (ears emerged),[7]; 60 days after sowing,49.9
same,time of heading of wheat (ears emerged),[7]; 65 days after sowing,61.1
same,time of heading of wheat (ears emerged),[7]; 70 days after sowing,76.4
same,time of heading of wheat (ears emerged),[7]; 75 days after sowing,87.8
same,time of heading of wheat (ears emerged),[7]; 80 days after sowing,93.1
same,time of heading of wheat (ears emerged),[7]; 85 days after sowing,97.1
same,Temperature (as a measure of the transpiration activity),"[8]; BBCH 75, ear",23.1 °C
same,Temperature (as a measure of the transpiration activity),"[8]; BBCH 75, leaf",22.3 °C
same,Temperature (as a measure of the transpiration activity),"[8]; BBCH 80, ear",18.9 °C
same,Temperature (as a measure of the transpiration activity),"[8]; BBCH 80, leaf",16.5 °C
same,Temperature (as a measure of the transpiration activity),"[8]; BBCH 85, ear",24.8 °C
same,Temperature (as a measure of the transpiration activity),"[8]; BBCH 85, leaf",23.4 °C
same,Temperature (as a measure of the transpiration activity),"[8]; BBCH 90, ear",23.9 °C
same,Temperature (as a measure of the transpiration activity),"[8]; BBCH 90, lear (so in the source)",22.7 °C
same,Photosynthesis (gas exchange activity of wheat ears),[9],−2.44 a CO2 per ear
same,Respiration (gas exchange activity of wheat ears),[9],2.96 b CO2 per ear
